Reference: ChEMBL document CHEMBL4257084, “Novel functionalized 5-(phenoxymethyl)-1,3-dioxane analogs exhibiting cytochrome p450 inhibition and their method of use” (2016)

Molecular target: T1, Cytochrome P450 11B1, mitochondrial (Homo sapiens, UniProt P15538)
T1 sequence (P15538 whole entry): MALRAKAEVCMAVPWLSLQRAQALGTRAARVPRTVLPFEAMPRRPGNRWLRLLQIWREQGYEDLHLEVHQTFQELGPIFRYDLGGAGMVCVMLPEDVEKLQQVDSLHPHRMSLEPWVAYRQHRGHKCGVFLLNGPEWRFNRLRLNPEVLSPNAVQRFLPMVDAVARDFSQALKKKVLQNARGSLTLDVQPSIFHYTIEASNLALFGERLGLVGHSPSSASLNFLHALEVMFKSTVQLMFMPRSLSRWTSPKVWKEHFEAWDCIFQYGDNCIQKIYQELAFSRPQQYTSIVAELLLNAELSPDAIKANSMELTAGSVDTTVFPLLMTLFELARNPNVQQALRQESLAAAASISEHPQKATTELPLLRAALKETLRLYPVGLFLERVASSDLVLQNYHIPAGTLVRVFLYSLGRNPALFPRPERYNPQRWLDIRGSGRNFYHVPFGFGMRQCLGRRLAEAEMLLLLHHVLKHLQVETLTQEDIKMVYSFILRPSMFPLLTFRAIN
Assay: Inhibition of recombinant CYP11 (unknown origin) expressed in human AD293 cells assessed as reduction in cortisol level preincubated for 60 mins followed by 11-deoxy cortisol substrate addition and measured after 12 hrs by LC-MS method
Assay type: cell-based

IC50: 10 µM
SMILES: CS(=O)(=O)N1CCN(c2ccc(CO[C@H]3CO[C@@](Cn4ccnc4)(c4ccccc4Cl)OC3)cc2)CC1
